From the supplement of paper PMC6411743

Tests used:
adenosine triphosphate = compound: Nc1ncnc2c1ncn2[C@@H]1O[C@H](COP(=O)(O)OP(=O)(O)OP(=O)(O)O)[C@@H](O)[C@H]1O [adenosine triphosphate]; assay: pEC50 of ATP-induced change in protein thermal stability (2D-TPP)
Procedure, shortened: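 Each of three independent experiments used Jurkat crude lysate given five concentrations including vehicle (10 min, room temperature), followed by 3 min at one of 12 temperatures from 42 to 63.9 °C and NP40 with benzonase (60 min, 4 °C). TMT LC-MS/MS quantified soluble protein after ultracentrifugation, expressed as fold changes against vehicle at each temperature with median normalisation. For pEC50, dose-response curves were fitted per replicate over adjacent temperature pairs, and hits were called through permutation-based false discovery rate control.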

guanosine triphosphate = compound: Nc1nc2c(ncn2[C@@H]2O[C@H](COP(=O)(O)OP(=O)(O)OP(=O)(O)O)[C@@H](O)[C@H]2O)c(=O)[nH]1 [guanosine triphosphate]; assay: pEC50 of GTP-induced change in protein thermal stability (2D-TPP)
Description: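 2D thermal proteome profiling in Jurkat crude lysate. Lysate was treated 10 min at room temperature with Na-GTP (0, 0.001, 0.01, 0.1, 0.5 mM), heated to 12 temperatures (42-63.9 °C) for 3 min, and soluble protein was quantified by TMT10 LC-MS/MS. pEC50 is the median over replicates of dose-response fits (FDR-controlled hits).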
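Wherever pEC50 of ATP-induced change in protein thermal stability (2D-TPP) is given: lysate dosed with Na-ATP at 0 0.005 0.05 0.5 and 2 mM.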

Chain of UniProt Q9NPF4 (Q9NPF4 whole entry): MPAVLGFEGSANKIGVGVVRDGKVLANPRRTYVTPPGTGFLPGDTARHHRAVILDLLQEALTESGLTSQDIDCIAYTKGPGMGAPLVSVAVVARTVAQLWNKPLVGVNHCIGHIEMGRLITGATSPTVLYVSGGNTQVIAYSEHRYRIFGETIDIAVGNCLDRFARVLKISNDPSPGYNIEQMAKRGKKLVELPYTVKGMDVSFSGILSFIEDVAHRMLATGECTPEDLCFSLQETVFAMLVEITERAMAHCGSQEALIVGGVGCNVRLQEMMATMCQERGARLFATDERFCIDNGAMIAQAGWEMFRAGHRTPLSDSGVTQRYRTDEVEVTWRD
Chain of UniProt O43776 (O43776 whole entry): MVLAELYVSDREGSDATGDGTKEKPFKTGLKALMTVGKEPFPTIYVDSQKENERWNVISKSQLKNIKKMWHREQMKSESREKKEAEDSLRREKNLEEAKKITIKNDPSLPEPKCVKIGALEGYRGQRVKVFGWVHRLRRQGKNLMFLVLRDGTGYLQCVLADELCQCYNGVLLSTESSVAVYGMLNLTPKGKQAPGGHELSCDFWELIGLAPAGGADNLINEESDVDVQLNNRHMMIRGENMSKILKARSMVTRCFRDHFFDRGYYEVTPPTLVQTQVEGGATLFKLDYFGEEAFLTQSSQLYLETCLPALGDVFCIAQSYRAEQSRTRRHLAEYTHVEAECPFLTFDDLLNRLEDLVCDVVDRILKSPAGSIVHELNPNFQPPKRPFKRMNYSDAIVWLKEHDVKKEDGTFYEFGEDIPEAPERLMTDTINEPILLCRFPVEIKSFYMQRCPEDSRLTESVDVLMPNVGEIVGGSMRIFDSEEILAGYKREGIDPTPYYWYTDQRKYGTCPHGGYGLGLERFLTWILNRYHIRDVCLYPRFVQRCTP
Chain of UniProt Q14088 (Q14088 whole entry): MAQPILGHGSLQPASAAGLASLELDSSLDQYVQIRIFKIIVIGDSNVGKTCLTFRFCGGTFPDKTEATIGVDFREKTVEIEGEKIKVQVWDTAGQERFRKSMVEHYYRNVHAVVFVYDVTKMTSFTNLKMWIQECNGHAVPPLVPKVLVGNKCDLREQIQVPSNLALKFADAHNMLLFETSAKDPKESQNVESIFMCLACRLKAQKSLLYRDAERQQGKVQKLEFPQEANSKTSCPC
Chain of UniProt O00746 (O00746 whole entry): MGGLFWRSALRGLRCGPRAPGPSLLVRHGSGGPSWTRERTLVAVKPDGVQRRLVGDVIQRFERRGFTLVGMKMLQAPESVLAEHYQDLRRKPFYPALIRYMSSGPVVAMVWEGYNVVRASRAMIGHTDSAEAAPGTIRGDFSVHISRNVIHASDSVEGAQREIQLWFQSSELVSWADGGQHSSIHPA
Chain of UniProt Q16512 (Q16512 whole entry, looked up): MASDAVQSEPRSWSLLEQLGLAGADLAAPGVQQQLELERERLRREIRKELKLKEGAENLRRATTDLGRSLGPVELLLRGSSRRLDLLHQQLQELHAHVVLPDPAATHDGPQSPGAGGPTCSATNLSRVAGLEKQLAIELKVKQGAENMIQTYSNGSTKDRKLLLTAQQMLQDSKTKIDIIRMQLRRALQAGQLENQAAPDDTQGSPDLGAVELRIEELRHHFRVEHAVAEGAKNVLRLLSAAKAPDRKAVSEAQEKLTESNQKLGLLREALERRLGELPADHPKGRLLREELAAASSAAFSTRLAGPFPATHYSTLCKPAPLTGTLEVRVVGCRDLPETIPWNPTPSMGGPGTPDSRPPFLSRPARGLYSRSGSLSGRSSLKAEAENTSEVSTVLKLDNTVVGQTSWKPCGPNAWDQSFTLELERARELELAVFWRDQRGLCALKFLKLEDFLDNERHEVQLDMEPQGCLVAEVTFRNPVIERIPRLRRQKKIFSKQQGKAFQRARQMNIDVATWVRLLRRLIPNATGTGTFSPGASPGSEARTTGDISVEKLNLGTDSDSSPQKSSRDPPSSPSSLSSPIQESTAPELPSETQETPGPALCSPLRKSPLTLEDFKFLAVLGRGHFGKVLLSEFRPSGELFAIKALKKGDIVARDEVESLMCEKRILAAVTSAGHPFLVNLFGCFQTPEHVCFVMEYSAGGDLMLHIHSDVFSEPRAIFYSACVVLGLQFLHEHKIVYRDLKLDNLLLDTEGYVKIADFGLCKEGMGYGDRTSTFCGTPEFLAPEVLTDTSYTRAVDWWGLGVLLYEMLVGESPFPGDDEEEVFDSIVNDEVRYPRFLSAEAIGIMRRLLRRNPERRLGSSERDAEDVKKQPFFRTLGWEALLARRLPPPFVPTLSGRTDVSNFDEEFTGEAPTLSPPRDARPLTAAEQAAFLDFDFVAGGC
Chain of UniProt Q5HYI8 (Q5HYI8 whole entry): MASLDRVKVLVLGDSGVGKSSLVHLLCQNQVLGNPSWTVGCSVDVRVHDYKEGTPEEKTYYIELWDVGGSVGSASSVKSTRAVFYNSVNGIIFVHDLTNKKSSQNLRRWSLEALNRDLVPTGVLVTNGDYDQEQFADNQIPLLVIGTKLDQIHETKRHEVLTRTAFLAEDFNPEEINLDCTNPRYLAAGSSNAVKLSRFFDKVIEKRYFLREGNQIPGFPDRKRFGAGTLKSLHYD
Chain of UniProt Q08J23 (Q08J23 whole entry): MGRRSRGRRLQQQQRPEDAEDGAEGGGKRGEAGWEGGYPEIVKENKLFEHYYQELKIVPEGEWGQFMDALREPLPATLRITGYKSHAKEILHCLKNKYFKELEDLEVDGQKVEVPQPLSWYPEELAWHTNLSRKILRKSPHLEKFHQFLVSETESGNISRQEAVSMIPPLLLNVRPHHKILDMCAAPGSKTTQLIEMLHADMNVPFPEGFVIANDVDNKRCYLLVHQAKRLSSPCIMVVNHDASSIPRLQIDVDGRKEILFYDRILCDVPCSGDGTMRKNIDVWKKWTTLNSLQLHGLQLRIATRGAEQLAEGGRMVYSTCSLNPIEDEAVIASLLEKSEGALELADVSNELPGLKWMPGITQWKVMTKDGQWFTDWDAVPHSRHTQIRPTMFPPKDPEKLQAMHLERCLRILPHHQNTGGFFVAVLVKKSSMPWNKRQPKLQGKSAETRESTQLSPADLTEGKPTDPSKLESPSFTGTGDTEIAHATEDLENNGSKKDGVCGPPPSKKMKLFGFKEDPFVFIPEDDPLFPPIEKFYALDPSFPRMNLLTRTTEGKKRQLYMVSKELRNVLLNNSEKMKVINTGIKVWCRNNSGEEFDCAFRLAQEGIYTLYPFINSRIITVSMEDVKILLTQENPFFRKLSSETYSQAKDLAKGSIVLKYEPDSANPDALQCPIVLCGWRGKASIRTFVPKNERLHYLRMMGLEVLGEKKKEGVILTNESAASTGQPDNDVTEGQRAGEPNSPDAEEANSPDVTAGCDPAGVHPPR
Chain of UniProt Q13144 (Q13144 whole entry): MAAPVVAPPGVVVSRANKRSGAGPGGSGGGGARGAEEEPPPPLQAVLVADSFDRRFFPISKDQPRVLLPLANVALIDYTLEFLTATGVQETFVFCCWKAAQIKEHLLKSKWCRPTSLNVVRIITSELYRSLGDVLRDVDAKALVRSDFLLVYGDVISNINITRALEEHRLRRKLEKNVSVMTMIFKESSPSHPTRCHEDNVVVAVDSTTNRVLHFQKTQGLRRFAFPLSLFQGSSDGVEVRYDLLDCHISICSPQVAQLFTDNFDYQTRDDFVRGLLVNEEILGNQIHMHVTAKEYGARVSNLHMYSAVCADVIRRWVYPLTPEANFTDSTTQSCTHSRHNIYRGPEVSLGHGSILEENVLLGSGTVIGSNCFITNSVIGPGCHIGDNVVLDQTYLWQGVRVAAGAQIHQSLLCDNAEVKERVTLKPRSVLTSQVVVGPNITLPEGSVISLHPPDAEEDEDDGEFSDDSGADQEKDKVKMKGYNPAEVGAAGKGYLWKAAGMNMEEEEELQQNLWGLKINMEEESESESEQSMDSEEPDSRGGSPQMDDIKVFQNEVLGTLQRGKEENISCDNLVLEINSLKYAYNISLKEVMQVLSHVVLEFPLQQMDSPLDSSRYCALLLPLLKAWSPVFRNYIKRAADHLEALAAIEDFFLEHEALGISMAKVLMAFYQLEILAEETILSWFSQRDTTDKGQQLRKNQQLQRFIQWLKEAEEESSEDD
Chain of UniProt P49914 (P49914 whole entry): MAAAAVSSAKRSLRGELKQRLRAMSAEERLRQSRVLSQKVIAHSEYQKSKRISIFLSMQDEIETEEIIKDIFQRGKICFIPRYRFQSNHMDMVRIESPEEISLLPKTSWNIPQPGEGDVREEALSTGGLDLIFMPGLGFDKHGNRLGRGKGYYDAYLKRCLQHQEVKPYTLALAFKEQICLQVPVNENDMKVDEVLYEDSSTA
Chain of UniProt P36542 (P36542 whole entry): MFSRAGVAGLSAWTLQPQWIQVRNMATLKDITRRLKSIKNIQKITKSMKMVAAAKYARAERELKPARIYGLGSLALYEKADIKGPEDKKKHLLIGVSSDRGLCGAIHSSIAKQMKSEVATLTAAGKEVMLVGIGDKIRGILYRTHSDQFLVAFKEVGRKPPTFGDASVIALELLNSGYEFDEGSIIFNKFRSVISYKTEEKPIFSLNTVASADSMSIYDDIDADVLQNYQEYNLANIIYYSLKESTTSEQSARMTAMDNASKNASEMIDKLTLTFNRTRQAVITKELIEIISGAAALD
Chain of UniProt Q16774 (Q16774 whole entry): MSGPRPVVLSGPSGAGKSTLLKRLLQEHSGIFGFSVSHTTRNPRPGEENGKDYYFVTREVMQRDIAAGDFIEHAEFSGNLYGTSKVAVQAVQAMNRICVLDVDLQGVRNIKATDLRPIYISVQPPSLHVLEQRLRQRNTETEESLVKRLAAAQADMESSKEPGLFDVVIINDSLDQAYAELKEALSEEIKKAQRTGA
Chain of UniProt P61586 (P61586 whole entry): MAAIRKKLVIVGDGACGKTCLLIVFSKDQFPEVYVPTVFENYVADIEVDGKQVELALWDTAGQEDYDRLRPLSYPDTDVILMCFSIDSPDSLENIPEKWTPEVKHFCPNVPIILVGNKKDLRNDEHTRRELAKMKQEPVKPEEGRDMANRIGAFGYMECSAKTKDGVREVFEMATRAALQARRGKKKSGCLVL

Row | pEC50 (adenosine triphosphate) | pEC50 (guanosine triphosphate) | Target
1 | 3.84 | 4.2 | CSNK2B (effect direction: stabilized) (UniProt P67870)
2 | 4.22 | 4.49 | RAB5C (effect direction: stabilized) (UniProt P51148)
3 | 3.48 | 3.83 | SUCLG1 (effect direction: stabilized) (UniProt P53597)
4 | 3.77 | 4.12 | EIF2B5 (effect direction: stabilized) (UniProt Q13144)
5 | 4.25 | 4.12 | UniProt P36542 (effect direction: stabilized)
6 | 4.13 | 4.05 | UniProt O43776 (effect direction: stabilized)
7 | 3.74 | 4.67 | GTPBP3 (effect direction: stabilized) (UniProt Q969Y2)
8 | 4.12 | 3.92 | UniProt P19784 (effect direction: stabilized)
9 | 3.78 | 3.91 | GUK1 (effect direction: stabilized) (UniProt Q16774)
10 | 3.98 | 3.79 | HMGCS1 (effect direction: stabilized) (UniProt Q01581)
11 | 3.33 | 3.75 | MTHFS (effect direction: stabilized) (UniProt P49914)
12 | 3.65 | 3.73 | EIF2B4 (effect direction: stabilized) (UniProt Q9UI10)
13 | 3.19 | 3.73 | DCK (effect direction: stabilized) (UniProt P27707)
14 | 2.85 | 4.07 | GMPS (effect direction: stabilized) (UniProt P49915)
15 | 3.81 | 3.87 | OLA1 (effect direction: stabilized) (UniProt Q9NTK5)
16 | 3.71 | 3.6 | DYNC1LI1 (effect direction: stabilized) (UniProt Q9Y6G9)
17 | 4.25 | 3.83 | ARPC1B (effect direction: stabilized) (UniProt O15143)
18 | < 2.7 | 3.87 | NSUN2 (effect direction: stabilized) (UniProt Q08J23)
19 | 4.18 | 3.79 | UBA1 (effect direction: stabilized) (UniProt P22314)
20 | 4.15 | 4.45 | RHOA (effect direction: stabilized) (UniProt P61586)
21 | 3.92 | 3.9 | DARS (effect direction: stabilized) (UniProt P14868)

Row | pEC50 (adenosine triphosphate) | pEC50 (guanosine triphosphate) | Target
22 | 3.13 | 3.38 | UAP1L1 (effect direction: stabilized) (UniProt Q3KQV9)
23 | 3.41 | 3.94 | ABCC4 (effect direction: stabilized) (UniProt O15439)
24 | – | 4.36 | ARL3 (effect direction: stabilized) (UniProt P36405)
25 | – | 4.7 | DRG1 (effect direction: stabilized) (UniProt Q9Y295)
26 | – | 3.71 | OPA1 (effect direction: stabilized) (UniProt O60313)
27 | – | 4.01 | SRP72 (effect direction: stabilized) (UniProt O76094)
28 | – | 3.84 | RECQL (effect direction: destabilized) (UniProt P46063)
29 | – | 3.59 | UniProt P60953 (effect direction: stabilized)
30 | – | < 3.3 | CDC123 (effect direction: stabilized) (UniProt O75794)
31 | – | 3.72 | GIMAP4 (effect direction: stabilized) (UniProt Q9NUV9)
32 | – | 4.57 | DDX1 (effect direction: stabilized) (UniProt Q92499)
33 | – | 3.56 | ACSF3 (effect direction: destabilized) (UniProt Q4G176)
34 | – | 4.12 | RAB33B (effect direction: stabilized) (UniProt Q9H082)
35 | – | 3.69 | ABCD3 (effect direction: stabilized) (UniProt P28288)
36 | – | 3.8 | RAB37 (effect direction: stabilized) (UniProt Q96AX2)
37 | – | 4.24 | GNAO1 (effect direction: stabilized) (UniProt P09471)
38 | – | 4.22 | UniProt Q5JTY5 (effect direction: stabilized)
39 | – | 3.98 | SRP54 (effect direction: stabilized) (UniProt P61011)
40 | – | 4.27 | UniProt O14966 (effect direction: stabilized)
41 | – | 3.84 | RRAS (effect direction: stabilized) (UniProt P10301)
42 | – | 3.97 | RAB5A (effect direction: stabilized) (UniProt P20339)

Further lines, the target ahead of its results:

Row | Target | pEC50 (adenosine triphosphate) | pEC50 (guanosine triphosphate)
43 | RAB2A (effect direction: stabilized) (UniProt P61019) | 3.56 | 4.39
44 | ACSL3 (effect direction: stabilized) (UniProt O95573) | 3.91 | 3.9
45 | UniProt P17252 (effect direction: stabilized) | 4.25 | 4.06
46 | TBCD (effect direction: stabilized) (UniProt Q9BTW9) | 2.92 | 3.7
47 | RABL3 (effect direction: stabilized) (UniProt Q5HYI8) | 3.4 | 3.95
48 | VPS4B (effect direction: stabilized) (UniProt O75351) | 4.33 | 3.92
49 | RUVBL1 (effect direction: stabilized) (UniProt Q9Y265) | 4.34 | 3.67
50 | TNPO1 (effect direction: stabilized) (UniProt Q92973) | 2.89 | 3.68
51 | RAB33A (effect direction: stabilized) (UniProt Q14088) | 3.39 | 3.89
52 | UniProt O75323 (effect direction: stabilized) | 3.94 | 3.66
53 | DBN1 (effect direction: destabilized) (UniProt Q16643) | 3.27 | 3.79
54 | GMPPA (effect direction: stabilized) (UniProt Q96IJ6) | 3.08 | 3.36
55 | TNPO3 (effect direction: stabilized) (UniProt Q9Y5L0) | 3.08 | 3.76
56 | NME4 (effect direction: stabilized) (UniProt O00746) | 4.29 | 4.44
57 | CLPB (effect direction: stabilized) (UniProt Q9H078) | 4.02 | 4.19
58 | UniProt Q16512 (effect direction: stabilized) | 3.69 | 4.22
59 | OSGEP (effect direction: stabilized) (UniProt Q9NPF4) | 3.8 | 3.88
60 | RAB39B (effect direction: stabilized) (UniProt Q96DA2) | 3.52 | 4.03

Row | Target | pEC50 (adenosine triphosphate) | pEC50 (guanosine triphosphate)
61 | UniProt P78527 (effect direction: stabilized) | – | 3.93
62 | RAB11B (effect direction: stabilized) (UniProt Q15907) | – | 4.23
63 | ARF3 (effect direction: stabilized) (UniProt P61204) | – | 4.12
64 | HBS1L (effect direction: stabilized) (UniProt Q9Y450) | – | 4.21
65 | KRAS (effect direction: stabilized) (UniProt P01116) | – | 4.32
66 | PANK3 (effect direction: stabilized) (UniProt Q9H999) | – | 3.41
67 | RFC5 (effect direction: stabilized) (UniProt P40937) | – | 3.8
68 | UniProt Q9BSD7 (effect direction: stabilized) | – | 3.96
69 | TAP1 (effect direction: stabilized) (UniProt Q03518) | – | 3.74
70 | RFC3 (effect direction: stabilized) (UniProt P40938) | – | 3.85
71 | UCK1 (effect direction: stabilized) (UniProt Q9HA47) | – | < 3.3
72 | UniProt P48730 (effect direction: stabilized) | – | 3.86
73 | PCK2 (effect direction: stabilized) (UniProt Q16822) | – | 3.79
74 | UniProt Q08170 (effect direction: stabilized) | – | 3.79
75 | DHX30 (effect direction: destabilized) (UniProt Q7L2E3) | – | 3.92
76 | GBP1 (effect direction: stabilized) (UniProt P32455) | – | 3.82
77 | SRP68 (effect direction: stabilized) (UniProt Q9UHB9) | – | 4.12
78 | GFM1 (effect direction: stabilized) (UniProt Q96RP9) | – | 4.04
